Assay results reported in paper PMC6704344, “The Preclinical Pharmacological Study of a Novel Long-Acting Local Anesthetic, a Fixed-Dose Combination of QX-OH/Levobupivacaine, in Rats” (Frontiers in Pharmacology, 2019).

What was measured:
[1] = test system: frog sciatic nerve fibers; experiment: Compound action potentials (CAPs) from frog sciatic nerve fibers; conditions: LL-1, 35 mM QX-OH, 10 mM Levo-Bupi
Excerpt: According to previous published researches ([Matsushita et al., 2013]; [Ohtsubo et al., 2015]). Nine of frogs were decapitated and then pithed. Then, the sciatic nerve was dissected from the lumbar plexus to the knee. The two ends of isolated sciatic nerves were carefully tied to the wires by threads and placed in Ringer solution (NaCl, 115.5 mmol/L; KCl, 2.0 mmol/L; CaCl2, 1.8 mmol/L; Na2HPO4, 1.3 mmol/L and NaH2PO4, 0.7 mmol/L; pH = 7.4).
The compound action potentials (CAPs) from frog sciatic nerve fibers was recorded by the biological function experiment system (BL-420F, Chengdu Techman Software, China). All practices were carried out at room temperature. The sciatic nerve was loosely placed in three platinum wires and then CAPs were recorded in air using a preamplifier. In this system, two of the platinum wires were used to record CAPs, and the other one was for stimulation. The parameters of stimulation were set as follows: intensity, 3 V; frequency, 1 Hz; rectangular pulses, 0.1 ms. The procedure should be performed quickly in order to avoid the nerve dry. The time of measurement should be less than 2 min. […] In this study, we compared the amplitude of CAPs after using drugs with baseline to present the degree of inhibition from frog sciatic nerve, and which was analyzed using the following equation: CAPs amplitude (%) = CAPs measurement/CAPs baseline × 100%.

[2] = Drug concentration and pharmacokinetics in muscle near the injection site after sciatic nerve block in rats; format: in vivo, rat
Procedure: (§1) In brief, rats were anesthetized by inhaling 1%–2% isoflurane mixed with oxygen through an inhouse-made mask. Then, the rats were placed at right lateral position and inserted vertically using a 23-gauge injector at the middle of the line from the greater trochanter to ischial tuberosity ([Binshtok et al., 2007]; [Zhang et al., 2017b]). Once the bone has been contacted, 200 μl drug was injected.
(§2) On the basis of previous pharmacodynamic studies, nine sampling points were used for determining drug concentration in muscle and sciatic nerve for QX-OH and LL-1: 0.5, 1, 2, 3, 4, 5, 6, 7, and 8 h; four sampling points for Levo-Bupi: 0.5, 1, 2, and 3 h. Due to the destructive sampling, five male rats were sacrificed at each time point for collecting muscle and sciatic nerve nearby the injection site. Then all samples were weighed and frozen at -80°C.
(§3) According to previous study ([Zhang et al., 2017a]), plasma samples were deproteinized by acetonitrile solution with ropivacaine hydrochloride (internal standard, IS). The mixture was centrifuged for 10 min at 28,621 × g in 4°C after fully vortexed. The supernatant was diluted with ultrapure water (50:50, v/v). Muscle and sciatic nerve samples were homogenized by gentleMACS™ Dissociator (Miltenyi Biotec, Germany) and tissue grinder (model SCIENTZ-48, Ningbo, China), respectively. Tissue homogenate was mixed with IS solution by vortex and then centrifuged for 10 min at 28,621 × g. Then, the supernatant was diluted with ultrapure water at equal volume ratio. LC-MS/MS analysis system consist of Agilent 6460 triple quadrupole mass spectrometer and electrospray ionization source (Agilent Technologies, CA, USA). Chromatographic separation was adopted by Agilent Extend C18 column (100 mm × 3 mm, 3.5 μm) at 35°C with isocratic elution containing 0.05% formic acid and acetonitrile at the volume ratio of 78:22 at a flow rate of 0.3 ml/min. Mass spectrometry conditions were in a positive ionization mode: the sheath gas flow rate, 11.0 L/min; sheath gas heater temperature, 300°C; nebulizer pressure, 45 psi; capillary voltage, 3,500 V. MassHunter software was used to analyze data (B.04.00 Build 4.0.479.0, Agilent Technologies, USA).
(§4) The parameters of pharmacokinetics were analyzed by DAS® (Drug and Statistics, version 3.2.1, China) using noncompartmental model. In this study, the following pharmacokinetic parameters were calculated: the value of maximum concentration (Cmax) and the time to acquire (Tmax); the elimination half-life (t1/2); area under curve (AUC) from zero to the last time point (AUC0–last) and from zero to infinity (AUC0–∞); clearance (CL/F), and volume of distribution (Vd/F).

[3] = Drug concentration and pharmacokinetics in sciatic nerve after sciatic nerve block in rats; format: in vivo, rat
Procedure: as §1, §2, §3, §4

[4] = Plasma pharmacokinetics after sciatic nerve block in rats; format: in vivo, rat; conditions: for Tmax / AUC(0-inf) / AUC(0-t) / Cmax / Vd/F / half-life / CL/F: plasma
Excerpt: as §1, with “2017b]).” for “2017b]). Once the bone has been contacted, 200 μl drug was injected.”
According to the China Food and Drug Administration guidance for preclinical pharmacokinetic study, there should be more than three sampling points adjacent to the time to reach the maximum concentration. […] Thus, to obtain an accurate value of the maximum concentration of Levo-Bupi, we added another time point at 0.33 h. […] Blood samples were maintained in heparinized polypropylene tube separately and then centrifuged at 877 × g for 10 min to gain plasma within 1 h. All the samples were kept at -80°C.
as §3, §4

[5] = set-up: method as in Corvetto et al., 2012; conditions: transversus abdominis plane block; ref Corvetto et al., 2012; cited from earlier work
HT22 cells = experiment: Cellular drug uptake assay; format: cell-based, mouse; conditions: LL-1 vs 10 mM Levo-Bupi alone, 10 min incubation, n = 10, p = 0.067
Procedure: HT22 cell line, a sub-line derived from HT4 cells that were originally immortalized from primary mouse hippocampal neuron, were a generous gift from Dr. Huang (West China Second University Hospital, Sichuan University, China). HT22 cells were cultured in DMEM with high glucose (HyClone, Utah, USA) supplemented with 10% fetal bovine serum (Gibco, New York, USA) and 1% penicillin and streptomycin (HyClone, Utah, USA) in a humidified incubator with 5% CO2 and 95% air at 37°C.
According to previous study ([Brenneis et al., 2014]), cells were plated on 35 mm 6-well dishes (2.5 × 10^5 per well). When cells reached confluence at 70%–80%, the medium was removed, and plates washed with PBS (NaCl, 137.0 mmol/L; KCl, 2.7 mmol/L; KH2PO4, 1.5 mmol/L and Na2HPO4·12H2O, 8.0 mmol/L; pH = 7.4). Thirty wells were divided to incubate with LL-1, 35 mM QX-OH and 10 mM Levo-Bupi for 10 min, and then washed four times with PBS. Cells were translated to polypropylene tube. The cell suspensions were centrifuged at 72 × g and the supernatants were removed by pipette. All samples were frozen at -80°C before testing. Samples were homogenized with 100 µL of saline using a tissue grinder. After mixing 50 μl homogenate, 50 μl acetonitrile, and 10 μl IS, then the mixture was centrifuged for 10 min at 28,621 × g, and the supernatant was injected for analysis.

RAW, N1E and CHO cells = conditions: cited from earlier work
[6] = set-up: method as in Yu et al., 2002; conditions: subcutaneous administration; ref Yu et al., 2002; cited from earlier work
[7] = male, rat, muscle near the injection site, muscle, given as LL-1, sciatic nerve block, n = 5 per time point, mean ± SEM
[8] = muscle, given as LL-1, sciatic nerve block, n = 5 per time point, mean ± SEM
[9] = male, rat, sciatic nerve, given as LL-1, sciatic nerve block, n = 5 per time point, mean ± SEM
[10] = sciatic nerve, given as LL-1, sciatic nerve block, n = 5 per time point, mean ± SEM
[11] = both sexes, rat, 200 μl, Levobupivacaine alone (single drug), sciatic nerve block, mean ± SEM
[12] = both sexes, rat, given as LL-1, sciatic nerve block, n = 10, mean ± SEM

CCCCN1CCCC[C@H]1C(=O)Nc1c(C)cccc1C [Levobupivacaine, levobupivacaine]
soak time required to block CAPs ([1]; n = 6, mean ± SEM): 14.17 ± 2.01 min | CAPs amplitude (% of baseline) ([1]; within the first 5 min of soaking): 34% | increase of concentration in muscle, LL-1 vs single drug ([2]; at the same time points): 2 to 15 times | Tmax ([2]; male, rat, muscle near the injection site, muscle, given as LL-1, sciatic nerve block, n = 5 per time point): 0.5 h | Cmax [2, 7]: 256000 ± 28500 ng/g | Vd/F [2, 7]: 3.01 ± 1.21 L | half-life [2, 7]: 1.38 ± 0.6 h | AUC0–t [2, 8]: 417.58 ± 43.46 µg·h/g | AUC0–∞ [2, 8]: 417.86 ± 43.49 µg·h/g | CL/F [2, 8]: 1.59 ± 0.17 L/h | increase of concentration in sciatic nerve, LL-1 vs single drug ([3]; at the same time points): 1.5 to 24 times | Tmax ([3]; male, rat, sciatic nerve, given as LL-1, sciatic nerve block, n = 5 per time point): 0.5 h | Cmax [3, 9]: 430000 ± 48600 ng/g | Vd/F [3, 9]: 1.23 ± 0.8 L | half-life [3, 9]: 1.28 ± 0.74 h | AUC0–t [3, 10]: 935.82 ± 74.35 µg·h/g | AUC0–∞ [3, 10]: 935.88 ± 74.39 µg·h/g | CL/F [3, 10]: 0.70 ± 0.05 L/h | change of Tmax in plasma in combination with QX-OH vs alone ([4]; LL-1 vs Levo-Bupi alone, sciatic nerve block): increased by four times | Tmax ([4]; Sprague-Dawley, 200 μl, Levo-Bupi as a single drug, rat sciatic nerve block, preliminary experiment, read-out: time to maximum concentration): 0.5 h | AUC(0-inf) [4, 11]: 0.509 ± 0.0315 µg·h/mL | AUC(0-t) [4, 11]: 0.471 ± 0.0233 µg·h/mL | Cmax [4, 11]: 0.142 ± 0.013 µg/mL | Vd/F [4, 11]: 4.81 ± 0.5 L | half-life [4, 11]: 2.61 ± 0.31 h | Tmax ([4]; both sexes, rat, 200 μl, Levobupivacaine alone (single drug), sciatic nerve block, mean ± SEM, read-out: Tmax): 1.07 ± 0.16 h | Cmax ([4]; both sexes, rat, given as LL-1 (35 mM QX-OH/10 mM Levo-Bupi), 200 μl, sciatic nerve block, n = 10, mean ± SEM): 0.114 ± 0.0102 µg/mL | AUC(0-inf) [4, 12]: 0.819 ± 0.0788 µg·h/mL | AUC(0-t) [4, 12]: 0.651 ± 0.0474 µg·h/mL | Vd/F [4, 12]: 3.81 ± 0.7 L | half-life [4, 12]: 4.89 ± 1.77 h | Tmax ([4]; both sexes, rat, given as LL-1, sciatic nerve block, n = 10, mean ± SEM, read-out: Tmax): 4.11 ± 0.39 h | CL/F ([4]; Levobupivacaine alone (single drug), sciatic nerve block, mean ± SEM): 1.32 ± 0.08 L/h | CL/F ([4]; given as LL-1, sciatic nerve block, n = 10, mean ± SEM): 0.78 ± 0.10 L/h | Tmax ([4]; rat, Levo-Bupi in combination with QX-314 (35 mM/10 mM), sciatic nerve block, n = 10, read-out: Tmax): 4 h | change of Tmax on combining with epinephrine [5]: doubled | cellular uptake of Levo-Bupi (HT22 cells): had no difference

CC[N+](CC)(CC)CC(=O)Nc1c(C)cccc1C.[Br-] [QX-314]
cellular uptake of QX-314 in presence of bupivacaine (RAW, N1E and CHO cells): enhanced the cellular uptake

CCCCN1CCCCC1C(=O)Nc1c(C)cccc1C (stereo not drawn) [bupivacaine]
time at which Cmax was reached [6]: 0.5 h
